According to US6287813A, “Antibiotic-based gene regulation system” (Cistronics Cell Technology GmbH, priority 1999, dated 2001):

Legend:
[1] = molecular target: T1, Pip/PPIR ON (Streptomyces coelicolor, UniProt Q9ADN3); assay type: cell-based
T1 sequence (Q9ADN3 1-252): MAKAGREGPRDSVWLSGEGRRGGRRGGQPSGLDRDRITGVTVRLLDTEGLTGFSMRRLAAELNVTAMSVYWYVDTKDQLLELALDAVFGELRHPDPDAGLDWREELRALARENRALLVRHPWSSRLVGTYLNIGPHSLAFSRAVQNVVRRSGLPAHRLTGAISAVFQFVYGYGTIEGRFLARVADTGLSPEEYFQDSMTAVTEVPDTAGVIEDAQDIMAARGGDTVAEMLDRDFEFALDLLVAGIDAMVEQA
Excerpt: The Classical PIT/PPIR system belongs to the "OFF" family of regulation concepts since gene expression is activated upon withdrawal of the regulating antibiotic. However, in some applications such as gene therapy and tissue engineering an "ON" system which is induced upon addition of streptogramin antibiotics is more desirable. We therefore constructed a new Pip-based binary PION system which consists of a PPIR ON promoter and a set of two different transrepressors. PPIR ON consists of a PIR3 module containing 3 consecutive Pip binding elements (SEQ ID NO:21; Example 3) placed in front of the strong viral SV40 promoter. Transrepressors such as PIT3, which consists of a protein fusion between Pip and the KRAB silencing domain of the human kox-1 gene (Deuschle et al., 1995, Mol. Cell Biol. 15: 1907-1914) and PIT4, which is simply Pip expressed in a eukaryotic configuration, bind to PIR3 in front of PSV40 and block transcription of this promoter. Besides sterical transcription blocking the silencing domain of PIT3 can additionally downregulate PSV40 activity. […]
Table 9: Comparison of the regulation characteristics of the PipON systems. CHO-K1 cells were simultaneously cotransfected with the plasmids indicated and the SEAP readout (slope a of the p-nitrophenolphosphate-based light absorbance time courses) was determined in the presence and absence of pristinamycin 48 hr post transfection. […]
In order to assess the regulation potential of different streptogramin antibiotics, pMF225 or pMF150 encoding PIT4 were cotransfected with pMF208 (PPIR ON-SEAP) into CHO-K1 cells and the SEAP induction was measured 48 following transfection (as described above in Example 1) and addition of the following streptogramin antibiotics: (i) PI, the group B streptogramin component of pristinamycin; (ii) Pyostacin, the human oral antibiotic; (iii) Synercid, the first injectable semi-synthetic pristinamycin derivative effective against most multidrug resistant human pathogenic bacteria and (iv) virginiamycin used as growth promotant in livestock feed. […]

[2] = molecular target: T2, PIT/PPIR system (Streptomyces coelicolor, UniProt Q9ADN3); test: Positive feedback vector pMF170 (PPIR-GFP-IRES-PIT-pA), GFP fluorescence microscopy; assay type: cell-based; settings: pMF170 in CHO-K1, BHK-21 or HeLa cells
T2 construct: pMF156/pTWIN in CHO cells, PPIR-SEAP or GFP reporter
T2 sequence (Q9ADN3 1-252): T1 sequence (Q9ADN3 1-252)
Excerpt: These positive feedback regulation vectors that were constructed contain both the green fluorescent protein GFP and PIT in a dicistronic, PPIR -driven configuration.
For construction of the autoregulatory system, PIT was excised from pMF156 by EcoRI/HindIII and cloned into the polylinker of the eukaryotic expression vector pSBC-2 (EcoRI/HindIII). As a pSBC-2 derivative, the resulting plasmid pMF169 is compatible to the pSBC-1 derivative pMF164 (PPIR -GFP) and allows fusion of both expression units via their SspI/NotI restriction sites, thereby generating pMF170. pMF170 contains a dicistronic PPIR -regulated expression unit encoding GFP in the first and PIT in the second cistron. Cap-independent translation initiation of the second cistron is enabled by a picornaviral internal ribosomal entry site (IRES) encoded upstream of PIT.

pristinamycin I [PI]
SEAP readout (slope of the p-nitrophenolphosphate-based light absorbance time courses) ([1]; +PI (2 μg/ml) column, CHO + pMF208 + pMF225, 48 hr post transfection): 0.019 ± 0.002
SEAP Production (slope of the p-nitrophenolphosphate-based light absorbance time courses) ([1]; CHO-K1 + pMF225 + pMF208, 2 μg/ml group B component, 48 hr post transfection): 0.65 ± 0.03
Induction factor ([1]; PIT4-PPIR ON configuration (pMF225-pMF208)): 25
GFP-expression in the presence of PI [2]: completely repressed
